This is an account of results in patent publication US20240408222A1, “COMPOUNDS, PHARMACEUTICAL COMPOSITIONS, AND METHODS FOR THE TREATMENT, PREVENTION, OR MANAGEMENT OF HYPERPRO[…]” (VINCERX PHARMA GMBH, priority 2021, published 2024).

Molecules are shown by their SMILES. Bounds are passed on as bounds.

A short description of one data set: in vivo. To be noted: male, rat, plasma, iv.
Data set [1] concerns NCI H292. Description: Cytotoxicity assay (Version 2, automated, AC50) with/without neutrophil elastase. Format: cell-based, human. To be noted: Version 2, activity concentration at −50%. The method in brief: (§1)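 MTT absorbance at 570 nm after 72 h compound exposure (10^−5–10^−13 M, triplicate), run in parallel sets ± 10 nM elastase. Values normalized between medium-only wells (−100%) and DMSO controls (0%); AC50 = concentration giving −50%, via 4-parameter Hill fit.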

Data set [2] relates to HT29. The data set is described as above. The format is cell-based, human. Particulars: Version 2, activity concentration at −50%. The method in brief: as §1
Data set [3] deals with 786-O. Described as above. To be noted: Version 2, activity concentration at −50%. The format is cell-based, human. In outline:
as §1

Data set [4] deals with NCI H292. Description: Cytotoxicity in vitro (MTT) in presence/absence of elastase. The format is cell-based, human. To be noted: 72 h. As for the experimental part:
(§2) Cultivation of cells was performed according to standard procedures with the media recommended by the provider. The cells, in a total volume of 100 μL, were seeded in a 96-well plate with a white bottom (#3610). After a 24 h incubation period at 37° C. and […], the medium was exchanged by adding 90 μL fresh medium. The treatment started by adding the test compound in 10 μL of culture medium to the cells in triplicates. Concentrations ranging from 10^−5 M to 10^−13 M were chosen. Two identically treated sets of samples were prepared. One set was treated with the test compound alone, whereas to the second set the compound and 10 nM elastase was added followed by a 72 h incubation period at 37° C. and […]. The proliferation was detected using the MTT assay (ATCC). At the end of the incubation period the MTT reagent was added to all samples for 4 h. Lysis of the cells followed by addition of the detergent was done overnight. The formed dye was detected at 570 nm. The proliferation of untreated but otherwise identically handled cells was define as the 100% value.

In data set [5] the test system is HT29. The data set is described as above. The format is cell-based, human. Particulars: 72 h. As for the experimental part:
as §2

Data set [6] relates to 786-O. The description is as above. Particulars: 72 h. Format: cell-based, human. As for the experimental part: as §2
Data set [7] relates to SUM149. The description is as above. Format: cell-based. Particulars: 72 h. As to the method:
as §2

The subject of data set [8] is SUM149. Put plainly: Cytotoxicity assay (Version 2, automated, AC50) with/without neutrophil elastase. The format is cell-based. Particulars: Version 2, activity concentration at −50%. In outline:
as §1

Where [9] appears, read: NCI H292, with (+) neutrophil elastase.
[10] abbreviates: NCI H292, without (−) neutrophil elastase.
Where [11] appears, read: HT29, with (+) neutrophil elastase.
[12] abbreviates: HT29, without (−) neutrophil elastase.
Setting [13] is: without (−) neutrophil elastase.
Setting [14] is: NCI H292, with (+) 10 nM neutrophil elastase.
Where [15] appears, read: HT29, with (+) 10 nM neutrophil elastase.
The mark [16] stands for this setting: with (+) 10 nM neutrophil elastase.
[17] abbreviates: SUM149, with (+) 10 nM neutrophil elastase.
The mark [18] stands for this setting: SUM149, without (−) neutrophil elastase.
Where [19] appears, read: SUM149, with (+) neutrophil elastase.

Experimental for in vivo: Male rats (n=3) were given an intravenous 0.5 or 2.0 mg/kg bolus dose of test article dissolved in plasma with 1% DMSO and 2% ethanol (C30 only). Serial blood samples were collected up to 24 hours post-dose. Plasma was harvested from blood samples and stored frozen until sample analysis. Test article plasma concentrations were analyzed by LC/MS/MS.

As to `CCCNC(=O)Nc1cccc(S(=O)(=O)Nc2cccc([C@@H](CC(=O)O)NC(=O)Nc3ccc(NC(=O)NCCOCCOCCOCCC(=O)N[C@@H](CC(=O)O)C(=O)N4CCC[C@H]4C(=O)N[C@H](C(=O)N=S(C)(=O)Cc4cc5nc(c4)OCCCOc4cc(F)ccc4-c4cc(ncc4F)N5)C(C)C)cc3)c2)c1` (single isomer, unassigned) [Compound 41, disodium 1-{(2S)-2-(carboxylatomethyl)-17-[4-({[(1R)-2-carboxylato-1-{3-[({3-[(propylcarbamoyl)amino]phenyl}sulfonyl)amino]phenyl}ethyl]carbamoyl}amino)anilino]-4,17-dioxo-7,10,13-trioxa-3,16-diazaheptadecan-1-oyl}-L-prolyl-N—[(R*)—{[15,19-difluoro-3,4-dihydro-2H,11H-10,6-(azeno)-12,16-(metheno)-1,5,11,13-benzodioxadiazacyclooctadecin-8-yl]methyl}(methyl)oxido-lambda^6-sulfanylidene]-L-valinamide], in the data set “in vivo” (2 mg/kg), the AUC lay within 1000 to 10000 ng·h/mL, the Vd is > 0.1 L/kg, the clearance was in the range of 0.5 to 5 mL/min/kg and the half-life fell in the range of 10 to 20 h.
Turning to `CCCNC(=O)Nc1cccc(S(=O)(=O)Nc2cccc([C@@H](CC(=O)O)NC(=O)Nc3ccc(NC(=O)NCCOCCOCCOCCC(=O)N[C@@H](CC(=O)O)C(=O)N4CCC[C@H]4C(=O)N[C@H](C(=O)N=[S@](C)(=O)Cc4cc5cc(c4)O[C@H](C)CCOc4cc(F)ccc4-c4nc(ncc4F)N5)C(C)C)cc3)c2)c1` (relative stereo) [Compound 48], in the data set “in vivo” (0.5 mg/kg), the AUC was in the range of 1000 to 10000 ng·h/mL, the Vd lay in the range of 0.03 to 0.1 L/kg, the clearance was > 5 mL/min/kg and the half-life was in the range of 0.1 to 1 h.
As to `CCCNC(=O)Nc1cccc(S(=O)(=O)Nc2cccc([C@H](CC(=O)O)NC(=O)Nc3ccc(NC(=O)NCCOCCOCCOCCC(=O)N[C@@H](CCCCNC(=O)CCOCCOCCOCCNC(=O)Nc4ccc(NC(=O)N[C@H](CC(=O)O)c5cccc(NS(=O)(=O)c6cccc(NC(=O)NCCC)c6)c5)cc4)C(=O)NCCOCCOCCOCCC(=O)N[C@@H](CC(=O)O)C(=O)N4CCC[C@H]4C(=O)N[C@H](C(=O)N=S(C)(=O)Cc4cc5nc(c4)OCCCOc4cc(F)ccc4-c4cc(ncc4F)N5)C(C)C)cc3)c2)c1` (relative stereo) [Compound 33], in “in vivo” (2 mg/kg), the AUC was 50000 to 150000 ng·h/mL, the Vd is > 0.1 L/kg, the clearance was 0.5 to 5 mL/min/kg and the half-life fell in the range of 10 to 20 h.
For the compound `CCCNC(=O)Nc1cccc(S(=O)(=O)Nc2cccc([C@@H](CC(=O)O)NC(=O)Nc3ccc(NC(=O)NCCOCCOCCOCCC(=O)NCCCC[C@H](NC(=O)CCOCCOCCOCCNC(=O)Nc4ccc(NC(=O)N[C@H](CC(=O)O)c5cccc(NS(=O)(=O)c6cccc(NC(=O)NCCC)c6)c5)cc4)C(=O)NCCOCCOCCOCCC(=O)N[C@@H](CC(=O)O)C(=O)N4CCC[C@H]4C(=O)N[C@H](C(=O)N=S(C)(=O)Cc4cc5cc(c4)OC(C)CCOc4cc(F)ccc4-c4nc(ncc4F)N5)C(C)C)cc3)c2)c1` (relative stereo) [Compound 30], in “in vivo” (0.5 mg/kg), the AUC fell in the range of 50000 to 150000 ng·h/mL, the Vd was > 0.1 L/kg, the clearance fell in the range of 0.05 to 0.5 mL/min/kg and the half-life lay in the range of 10 to 20 h.
Regarding `CCCNC(=O)Nc1cccc(S(=O)(=O)Nc2cccc([C@H](CC(=O)O)NC(=O)Nc3ccc(NC(=O)NCCOCCOCCOCCC(=O)NCCCC[C@H](NC(=O)CCOCCOCCOCCNC(=O)Nc4ccc(NC(=O)N[C@@H](CC(=O)O)c5cccc(NS(=O)(=O)c6cccc(NC(=O)NCCC)c6)c5)cc4)C(=O)NCCOCCOCCOCCC(=O)N[C@@H](CC(=O)O)C(=O)N4CCC[C@H]4C(=O)N[C@H](C(=O)N=[S@@](C)(=O)Cc4cc5cc(c4)OCCCCOc4cc(F)ccc4-c4nc(ncc4F)N5)C(C)C)cc3)c2)c1` [Compound 19], the concentration at half-maximal activity (AC50) was 11 to 100 nM with NCI H292 [1] (setting [9]); 100 to 1000 nM in the data set on NCI H292 [1] (setting [10]); 100 to 1000 nM with HT29 [2] (setting [11]); 100 to 1000 nM with HT29 [2] (setting [12]); 100 to 1000 nM in the data set on 786-O [3] (with (+) neutrophil elastase); 100 to 1000 nM in the data set on 786-O [3] (setting [13]). Also, the AC50 in the data set on SUM149 [8] (setting [19]) and in the data set with SUM149 [8] (setting [18]) was 100 to 1000 nM each time. For the same compound, the IC50 with NCI H292 [4] (setting [14]) is 1.1 to 10 nM; in the data set with NCI H292 [4] (setting [10]), 11 to 100 nM; in the data set on HT29 [5] (setting [15]) it was ≤ 1 nM; with HT29 [5] (setting [12]), 11 to 100 nM; in the data set on 786-O [6] (setting [16]), 1.1 to 10 nM; with 786-O [6] (setting [13]), > 100 nM. Also, the IC50 in the data set with SUM149 [7] (setting [17]) was ≤ 1 nM; in the data set on SUM149 [7] (setting [18]), 1.1 to 10 nM.
As for `CCCNC(=O)Nc1cccc(S(=O)(=O)Nc2cccc([C@@H](CC(=O)O)NC(=O)Nc3ccc(NC(=O)NCCN(C)CCN(C)CCN(C)CC(=O)N[C@@H](CC(N)=O)C(=O)N4CCC[C@H]4C(=O)N[C@H](C(=O)N=[S@@](C)(=O)Cc4cc5cc(c4)OCCCCCNc4cc(ccc4F)-c4nc(ncc4F)N5)C(C)C)cc3)c2)c1` (relative stereo) [Compound 15], the AC50 in the data set on NCI H292 [1] (setting [9]) fell in the range of 11 to 100 nM; with NCI H292 [1] (setting [10]), 100 to 1000 nM; with HT29 [2] (setting [11]) it was 100 to 1000 nM; with HT29 [2] (setting [12]), 100 to 1000 nM; in the data set on 786-O [3] (with (+) neutrophil elastase), 100 to 1000 nM; in the data set on 786-O [3] (setting [13]) it was 100 to 1000 nM. The AC50 in the data set with SUM149 [8] (setting [19]) and in the data set on SUM149 [8] (setting [18]) was 100 to 1000 nM throughout. The IC50 in the data set on NCI H292 [4] (setting [14]) is ≤ 1 nM; in the data set with NCI H292 [4] (setting [10]), 11 to 100 nM; with HT29 [5] (setting [15]), ≤ 1 nM; with HT29 [5] (setting [12]) it was > 100 nM; with 786-O [6] (setting [16]) it was ≤ 1 nM; in the data set on 786-O [6] (setting [13]) it was > 100 nM. Moreover, the IC50 in the data set with SUM149 [7] (setting [17]) was ≤ 1 nM; in the data set on SUM149 [7] (setting [18]) it was 11 to 100 nM.
`CCCNC(=O)Nc1cccc(S(=O)(=O)Nc2cccc([C@@H](CC(=O)O)NC(=O)Nc3ccc(NC(=O)NCCOCCOCCOCCC(=O)NCCCC[C@H](NC(=O)CCOCCOCCOCCNC(=O)Nc4ccc(NC(=O)N[C@H](CC(=O)O)c5cccc(NS(=O)(=O)c6cccc(NC(=O)NCCC)c6)c5)cc4)C(=O)NCCOCCOCCOCCC(=O)N[C@@H](CC(=O)O)C(=O)N4CCC[C@H]4C(=O)N[C@H](C(=O)N=[S@@](C)(=O)Cc4cc5cc(c4)OCCCCOc4cc(F)ccc4-c4nc(ncc4F)N5)C(C)C)cc3)c2)c1` [Compound 18]: the AC50 is 11 to 100 nM in the data set on NCI H292 [1] (setting [9]); 100 to 1000 nM in the data set with NCI H292 [1] (setting [10]); 11 to 100 nM in the data set with HT29 [2] (setting [11]); > 1000 nM in the data set with HT29 [2] (setting [12]); 11 to 100 nM in the data set with 786-O [3] (with (+) neutrophil elastase); > 1000 nM with 786-O [3] (setting [13]). Besides, the AC50 in the data set on SUM149 [8] (setting [19]) is ≤ 10 nM; in the data set on SUM149 [8] (setting [18]), 100 to 1000 nM. Moreover, the IC50 was 1.1 to 10 nM with NCI H292 [4] (setting [14]); > 100 nM in the data set on NCI H292 [4] (setting [10]); ≤ 1 nM in the data set on HT29 [5] (setting [15]); 11 to 100 nM in the data set on HT29 [5] (setting [12]); 1.1 to 10 nM with 786-O [6] (setting [16]); > 100 nM with 786-O [6] (setting [13]). Besides, the IC50 with SUM149 [7] (setting [17]) is ≤ 1 nM; in the data set on SUM149 [7] (setting [18]), 11 to 100 nM.

As a reminder, the AUC is concentration integrated over time. A lower AUC goes with low exposure. Usually Vd stands for the apparent volume that relates the amount in the body to the concentration in plasma or blood. A higher Vd goes with wide distribution into tissue. What is called clearance is the volume of plasma or blood freed of the substance per unit of time. In general, half-life refers to the time in which the quantity being followed falls by half. A lower half-life goes with rapid decline. The AC50 is the concentration giving half of the maximal activity seen. Low values mean activity at low concentration, high ones activity only at high concentration. In general, IC50 refers to the concentration that gives 50% inhibition.
